Reference: article PMC7138307 (PLoS ONE, 2020)

Experiments:
[1] = system: tau phosphorylation following TTBK1 overexpression in HEK293 cells; experiment: Western blot of tau phosphorylation in HEK293 cells overexpressing TTBK1 and human Tau (2N4R) plus or minus staurosporine; assay type: cell-based; settings: 10μM, one hour
Text: However, it is unclear whether TTBK1 directly phosphorylates tau at these sites or whether it enhances the phosphorylation of tau through the activation of other kinases. […]; Fig 1A). […]. TTBK1 overexpression led to the increase in tau phosphorylation at several sites; some previously identified including S422, AT8 ([…]) and S198 as well as additional novel sites like AT180 (Thr231), PHF-13 (S396), S214, and S356 (Fig 1B and 1C). […].
Fig 1 TTBK1 overexpression leads to direct and indirect phosphorylation of Tau at disease-relevant sites. (A) Phylogenetic tree of the human kinome illustrating the biochemical IC50 for Staurosporine against various kinases (data compiled from Davis et al., 2011 in addition to internal data on the affinity of Staurosporine for TTBK1/TTBK2). […] TTBK1 overexpression caused a dramatic increase in the overall level of tau phosphorylation. […]. HEK293 cells obtained from American Type Culture Collection (ATCC, Manassas, VA) were cultured in Dulbecco's modified Eagle's medium (DMEM) supplemented with 10% fetal bovine serum (FBS), 10 units/ml penicillin, and 10μg/ml streptomycin (all reagents were purchased from Gibco, Waltham, MA). Cell cultures were maintained in a humidified 5% (v/v) CO2/air environment at 37°C. When the cells reached 50–80% confluence, they were transfected with a complex consisting of a 3:1 ratio of FuGENE 6 Transfection Reagent (Promega, Madison, WI) and plasmid DNA. Plasmid DNA was balanced out across reactions using an empty plasmid so that the same amount of DNA was added per well. This transfection complex was prepared following the manufacturers protocol and added directly to the cell media for 24 or 48 hours prior to lysis.
Samples were lysed in Pierce RIPA lysis and extraction buffer (Thermo Fisher Scientific, Waltham, MA) supplemented with 1% Halt protease and phosphatase inhibitor cocktail (Thermo Fisher Scientific, Waltham, MA) and centrifuged at 14000 x g for 20 min at 4°C to clear the lysate. Protein concentrations were determined using the Direct Detect Infrared Spectrometer (EMD Millipore Corp., Burlington, MA) and 10μg of each sample was denatured in 6X SDS sample buffer (Boston Bioproducts, Ashland, MA) for 7 minutes at 90°C. Proteins were loaded into a Criterion 7.5% tris-glycine gel (Bio-Rad, Hercules, CA) and separated by SDS-PAGE at 120V for 120 minutes. The gel was transferred to an IBlot2 nitrocellulose membrane (Invitrogen, Carlsbad, CA), blocked with TBST blocking buffer (Li-cor Biosciences, Lincoln, NE) for 1 hour, and washed three times with TBST. The membrane was probed with primary antibodies (1:1000 dilution) in antibody dilution buffer (1:1 TBST blocking buffer and 1X TBST) overnight at 4°C. The following antibodies were used for immunoblotting: TTBK1 (Cat# PA5-20686, Invitrogen, Carlsbad, CA), Tau-5 (Cat# ab80579, Abcam, Cambridge, UK), phospho-Tau S422 (Cat# ab79415, Abcam, Cambridge, UK), S198 (Cat# ab79540, Abcam, Cambridge, UK), AT8 S202/T205 (Cat# MN1020, Invitrogen, Carlsbad, CA), S214 (Cat# ab170892, Abcam, Cambridge, UK), AT180 T231 (Cat# MN1040, Invitrogen, Carlsbad, CA), S262 (Cat# ab131354, Abcam, Cambridge, UK), S356 (Cat# ab75603, Abcam, Cambridge, UK), S396 (Cat# ab109390, Abcam, Cambridge, UK), GAPDH (Cat# 5174S, Cell Signaling Technology, Danvers, MA), and β-actin (Cat# 926–42212, Li-cor Biosciences, Lincoln, NE). The blot was then washed in triplicate with TBST and incubated for 1 hour with secondary antibody (1:10,000 dilution of IRDye 800 anti-mouse IgG and IRDye 680 anti-rabbit IgG, Li-cor Biosciences, Lincoln, NE) in antibody dilution buffer. After a final triplicate wash with TBST, the blot was visualized using the Odyssey CLx imaging system (Li-cor Biosciences, Lincoln, NE).

[2] = biological target: T1, TTBK1 (Homo sapiens, UniProt Q5TCY1); experiment: TTBK biochemical (recombinant kinase) assay
T1 construct: TTBK1 1-479aa; SignalChem Catalog # T17-11G-05; purchased SignalChem T17-11G-05
T1 sequence (Q5TCY1 1-479): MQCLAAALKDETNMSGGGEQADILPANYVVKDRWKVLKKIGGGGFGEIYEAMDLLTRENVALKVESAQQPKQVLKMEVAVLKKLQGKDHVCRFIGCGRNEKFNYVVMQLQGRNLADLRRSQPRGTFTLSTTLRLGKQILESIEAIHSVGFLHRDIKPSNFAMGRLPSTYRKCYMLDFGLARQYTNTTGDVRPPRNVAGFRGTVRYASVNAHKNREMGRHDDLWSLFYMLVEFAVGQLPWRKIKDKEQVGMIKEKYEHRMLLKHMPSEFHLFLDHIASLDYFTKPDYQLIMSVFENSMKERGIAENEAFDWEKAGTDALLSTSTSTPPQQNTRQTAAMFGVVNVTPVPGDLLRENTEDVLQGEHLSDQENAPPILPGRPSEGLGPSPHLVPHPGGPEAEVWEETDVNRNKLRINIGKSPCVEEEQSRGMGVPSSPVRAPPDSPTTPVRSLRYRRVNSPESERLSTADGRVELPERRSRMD
Method: Final Kinase Activity conditions; 400 pM TTBK1 at ambient temperature in 25 mM Hepes, pH 7.5, 50 mM NaCl, 10 mM MgCl2, 0.02% Brij-35, 1 mM DTT, 10 uM ATP and 100 nM Ulight TOPO IIa peptide substrate ([sequence]). After a 2 hour incubation at 23 °C, the kinase reaction was quenched with 30 ul of 60 mM EDTA, and 2 nM Eu-anti- FDEKpTDDEDF antibody in 1X Lance Delfia Detection Buffer and incubated for one hour prior to detection with the EnVision Multilabel Reader (PerkinElmer). […] For compound inhibition, 15 ul of 800 pM TTBK1 was preincubated for 30 minutes with 300 nl of 100x compound stock in DMSO before initiation of the activity by addition of 15 ul of 2x Substrate Stock (200 nM peptide and 20 uM ATP).

Structure (SMILES): CN[C@@H]1C[C@H]2O[C@@](C)([C@@H]1OC)n1c3ccccc3c3c4c(c5c6ccccc6n2c5c31)C(=O)NC4 [Staurosporine, staurosporine]
- increase in tau phosphorylation at AT8 following TTBK1 overexpression [1]: not inhibited
- increase in tau phosphorylation at S198 following TTBK1 overexpression [1]: not inhibited
- increase in tau phosphorylation at S422 following TTBK1 overexpression [1]: not inhibited
- phosphorylation of tau at AT180 [1]: reduced
- phosphorylation of tau at S214 [1]: reduced
- phosphorylation of tau at S356 [1]: reduced
- phosphorylation of tau at S396 [1]: reduced
- IC50 [2]: > 30 µM
